Where a SMILES comes first, the peptide text is derived from it.
Tests used:
[1] = test system: E. coli ML-35p cytoplasmic membrane; assay: Cytoplasmic membrane permeabilization (ONPG hydrolysis); type: cell-based, Escherichia coli
Protocol: To examine the ability of the peptides to affect the barrier function of the cytoplasmic bacterial membrane, we slightly modified the previously described procedure with the use of the E. coli ML-35p strain constitutively expressing cytoplasmic β-galactosidase but lacking lactose permease. The state of the E. coli ML-35p inner membrane was assessed based on its permeability to chromogenic marker o-nitrophenyl-β-D-galactopyranoside (ONPG, AppliChem, Darmstadt, Germany), which is the β-galactosidase substrate. The cells were incubated in the trypticase soy broth (TSB) for 16 h at 37 °C, washed three times with phosphate-buffered saline (PBS, pH 7.4) to remove residual growth media, adjusted to the concentration of 2.5 × 10^8 CFU/mL, and stored on ice until used. The assay was performed in PBS as well. The final concentration of E. coli ML-35p cells was 2.5 × 10^7 CFU/mL. The concentration of ONPG was 2.5 mM. Peptide samples were placed in the wells of a 96-well plate with a non-binding surface (NBS, Corning #3641), and the optical density (OD) of the solution rose due to the appearance of o-nitrophenol was measured at 405 nm using a microplate reader AF2200 (Eppendorf, Hamburg, Germany). The final volume in each well was 200 µL. Assays were performed at 37 °C under stirring at 500 rpm. Control experiments were performed under the same conditions without adding a peptide. Two independent experiments were performed, and the curve pattern was similar.

human cells = assay: Cytokine response (multiplex xMAP immunoassay), cell type not given; type: cell-based; details: 2 µM peptide, 24 h, control 1813 pg/mL
Protocol: Acute monocytic leukemia THP-1 line (ATCC TIB-202) was cultured in complete RPMI 1640 medium (Invitrogen, Waltham, MA, USA) containing 10% FBS, 1× antibiotic-antimycotic solution (Invitrogen, Waltham, MA, USA), and 0.05 mM β-mercaptoethanol, in the CO2-incubator (5% CO2, 37 °C). THP-1 cells were differentiated into proinflammatory macrophages (MΦ1) according to the previously reported protocol. Primary peripheral blood mononuclear cells (PBMC) collected from a healthy donor were purchased from American Type Culture Collection (ATCC PCS-800-011), thawed, and seeded into a 96-well plate one day prior to the experiment at a density of 2 × 10^5 cells/well. […] 27 analytes were measured at a protein level by multiplex xMAP technology using the MILLIPLEX MAP Human Cytokine/Chemokine Magnetic Bead Immunology Panel kit (HCYTOMAG-60K-27, Merck, Darmstadt, Germany): eotaxin-1/CCL11, TGFα, GM-CSF, IFNα2, IFNγ, IL-10, IL-12p40, IL-12p70, IL-13, IL-15, sCD40L, IL-17A, IL-1RA, IL-1α, IL-9, IL-1β, IL-2, IL-3, IL-4, IL-5, IL-6, IL-7, IL-8/CXCL8, IP-10/CXCL10, RANTES/CCL5, TNFα, TNFβ. Multiplex-based assay read-out was performed using the MAGPIX system (Merck) with the xPONENT 4.2 software (Merck, Darmstadt, Germany) in accordance with the manufacturer’s instruction with overnight incubation of the samples with primary antibodies. […]

In the case of `CC[C@H](C)[C@H](NC(=O)[C@H](CCCNC(=N)N)NC(=O)[C@@H](N)CCCNC(=N)N)C(=O)N[C@@H](CCCNC(=N)N)C(=O)N[C@@H](CCCNC(=N)N)C(=O)N1CCC[C@H]1C(=O)N[C@@H](CCCNC(=N)N)C(=O)N[C@@H](CC(C)C)C(=O)N1CCC[C@H]1C(=O)N[C@@H](CCCNC(=N)N)C(=O)N1CCC[C@H]1C(=O)N[C@@H](CCCNC(=N)N)C(=O)N[C@H](C(=O)N1CCC[C@H]1C(=O)N[C@@H](CCCNC(=N)N)C(=O)N1CCC[C@H]1C(=O)N[C@@H](CCCNC(=N)N)C(=O)N[C@H](C(=O)N1CCC[C@H]1C(=O)N1CCC[C@H]1C(=O)N[C@@H](CCCNC(=N)N)C(=O)N[C@H](C(=O)N1CCC[C@H]1C(=O)N[C@@H](CCCNC(=N)N)C(=O)N1CCC[C@H]1C(=O)N[C@H](C(=O)N[C@@H](CC(C)C)C(=O)N1CCC[C@H]1C(=O)N1CCC[C@H]1C(=O)N1CCC[C@H]1C(=O)N[C@@H](CCCNC(=N)N)C(=O)N[C@H](C(=O)N1CCC[C@H]1C(=O)N[C@@H](Cc1ccccc1)C(=O)N1CCC[C@H]1C(=O)N[C@@H](CCCNC(=N)N)C(=O)N[C@@H](Cc1ccccc1)C(=O)N1CCC[C@H]1C(=O)N[C@@H](CCCNC(=N)N)C(N)=O)C(C)C)C(C)C)[C@@H](C)CC)[C@@H](C)CC)C(C)C` [VicBac[1-39]] (H-RRIRRPRLPRPRVPRPRIPPRIPRPVLPPPRVPFPRFPR-NH2; N-terminus assumed), the “membrane damage effect at concentrations near the MIC value” ([1]; E. coli ML-35p, ONPG, near MIC 0.5 µM) is reported as “negligible membrane damage effect”, the “effect on E. coli ML-35p cytoplasmic membrane permeability for ONPG” value ([1]; PBS, 37 °C, OD405, 2.5 mM ONPG, two independent experiments) is reported as “quite moderate effect” and the “Production of IL-8/CXCL8” value (human cells) is reported as 1034 pg/mL.
